Test results from US20230047788A1, “COMPOSITIONS COMPRISING 5-CHOLESTEN-3, 25-DIOL, 3-SULFATE (25HC3S) OR PHARMACEUTICALLY ACCEPTABLE SALT THEREOF AND AT LEAST ONE CYCLIC OLIGOSACCHARIDE” (Virginia Commonwealth University, priority 2016, published 2023).
Several values for one entry are separate records, joined by “and”; a condition that tells them apart may be missing. Identical values can stand only once. Like-named read-outs stand apart in the source and are kept apart here.

Key:
[1] = Compatibility of 25HC3S for Injection with container closure system; assay type: physicochemical; conditions: 10 mL glass vial, FluroTec coated stopper; up to 12 months 2-8°C, 6 months 25°C/60% RH and 40°C/75% RH, inverted
Protocol: 25HC3S for Injection is a sterile powder, for injection solution. The 25HC3S stability with the 10 mL glass vial and FluroTec® coated stopper was studied up to 12 months at 2-8° C., 6 months at 25° C./60% RH, and 6 months at 40° C./75% RH with vials stored in the inverted orientation.

[2] = dog, in vivo
Protocol: Injection routes of administration used were intramuscular, intravenous or subcutaneous. The following example is a representative injection study.
Beagle dogs (n=5/dose group) received a single intravenous bolus injection or a single subcutaneous injection. The parenteral solution that was tested included 25 mg/mL of 25HC3S sodium salt in vehicle (200 mg/mL hydroxypropyl betadex with 10 mM sodium phosphate buffers, in water). The intravenous dose level of 2.5 mg/kg was administered in a dose volume of 0.1 mL/kg whereas the subcutaneous injection dose level of 20 mg/kg was administered in a dose volume of 0.8 mL/kg. Whole blood samples were collected at pre-dose, 0.5, 1, 2, 4, 8, 12, 24, 32 and 48 hours (h) post dose and the resulting plasma samples underwent analyses to quantify 25HC3S levels. During the in-life period, animals were observed daily for mortality and moribundity with clinical examinations conducted daily.

[3] = test system: mice overdosed with APAP; assay: Mortality in mice overdosed with APAP (600 mg/kg); assay type: in vivo, C57BL/6J mice; conditions: APAP 600 mg/kg ip; 25 mg/kg 25HC3S iv 0.5 hours after APAP; 5 days after overdose
Protocol: The ability of 25HC3S to treat symptoms of APAP overdose was examined. 12-week-old male C57BL/6J mice were fasted overnight and injected (intraperitoneally) with APAP: 600 mg/kg (high dose) for mortality studies or 350 mg/kg (low dose) for liver function and gene studies. Control mice received only vehicle (20% (v/v) a propylene glycol, 4% (w/v) cyclodextrin (powdered hydroxypropyl beta cyclodextrin in sterile 10% (w/v) glucose.
(§1) A composition comprising 25 mg/kg of 25HC3S sodium salt in vehicle was administered intravenously to the experimental mice 0.5 hours after APAP administration. Mortality was monitored in the high dose mice. In the low dose mice, the liver function markers aspartate aminotransferase (AST), alanine aminotransferase (ALT), alkaline phosphatase (ALK) and lactate dehydrogenase (LDH), were measured in serum. Impacts on gene expression were determined by Quantitative Real-time PCR. Membrane potentials were measured using JC1 staining and flow cytometry.

[4] = test system: hepatic apoptosis-related genes; assay: Hepatic gene expression by RT2 Profiler PCR Array in APAP overdosed mice; assay type: in vivo, C57BL/6J mice; conditions: liver, APAP 350 mg/kg mice, 24 h
Protocol: as §1
Changes in gene regulation in low dose mice 24 hours after the administration of vehicle and vehicle plus 25HC3S were investigated. The 12-week-old male C57BL/6J mice had received 350 mg/kg APAP via intraperitoneal injection and 30 min later received 7.6% glucose/H2O (C) or vehicle (20% PG/4% HCD/7.6% glucose, P) or 25HC3S (3S). Twenty four hours following APAP injection, liver tissue was harvested and total mRNA was extracted and analyzed using an RT^2 Profiler™ PCR Array assay. The listed genes are involved in apoptosis and/or immune system regulation.

[5] = Solubility of 25HC3S in water as function of HPbCD or SBECD concentration at room temperature; assay type: physicochemical; conditions: for 25HC3S Solubility / Molar of 25HC3S: room temperature
Protocol: A total of six suspensions of 25HC3S sodium salt were prepared in water containing 0, 50, 100, 200, 250 and 400 mg/mL hydroxypropyl-β-cyclodextrin (HPbCD, hydroxypropyl betadex) or sulfobutyl ether β-cyclodextrin (SBECD, Captisol®). Both cyclodextrins are used in approved pharmaceutical products and are manufactured as Good Manufacturing Practice (GMP) excipients. Each suspension was agitated at room temperature, aliquots were centrifuged, and the supernatant solutions assayed for 25HC3S concentrations by a reverse phase HPLC method. The solubility data of 25HC3S as a function of HPbCD concentrations is in Table 1 and as a function of SBECD concentrations is in Table 2.

[6] = assay type: in vivo, Beagle dogs
Protocol: The objectives of this study were to evaluate the potential toxicity of 25HC3S when administered once daily by subcutaneous injection to Beagle dogs for 14 consecutive days. 25HC3S sodium salt in the vehicle (250 mg/mL hydroxypropyl-beta-cyclodextrin with 10 mM sodium phosphate buffer [approximate pH 7.6] in sterile water for irrigation) was administered via subcutaneous injection in the dorsoscapular area once daily for 14 consecutive days to 3 groups (Groups 2-4) of Beagle dogs. Dosage levels were 3, 10, and 30 mg/kg/day for Groups 2, 3, and 4, respectively. […] The dose volume was 1, 0.1, 0.33, and 1 mL/kg for Groups 1, 2, 3, and 4, respectively. Each group consisted of 4 males and 4 females. The animals were observed twice daily for mortality and moribundity. Clinical examinations (including injection site observations) were performed once daily for at least 6 days, including the day of randomization, prior to randomization, prior to dose administration, immediately following dose administration, and at approximately 2 hours following dose administration. Blood samples for toxicokinetic evaluation were collected from all animals prior to dosing (study day 0 only) and at 0.5, 1, 2, 4, 8, and 24 hours after dosing on study days 0 and 13.

C[C@H](CCCC(C)(C)O)[C@H]1CC[C@H]2[C@@H]3CC=C4C[C@@H](OS(=O)(=O)[O-])CC[C@]4(C)[C@H]3CC[C@]12C.[Na+] [25HC3S, 5-cholesten-3, 25-diol, 3-sulfate]
compatibility with container closure system [1]: good compatibility
AUCall, Mean (SD) ([2]; iv): 489 (464) ng * hr/mL
Cmax ([2]; iv): 439 ng/mL
Tmax, Mean (SD) ([2]; iv): 0.5 (0) hr
Cmax ([2]; iv, 2.5 mg/kg): 439 ng/mL
mean AUClast ([2]; iv, 2.5 mg/kg): 478 ng·h/mL
plasma levels at 8h ([2]; iv, 2.5 mg/kg): no observable levels in most animals (n=4)
time point of maximal concentration ([2]; iv, 2.5 mg/kg): 0.5 h
AUCall, Mean (SD) ([2]; sc): 19676 (3716) ng * hr/mL
Cmax ([2]; sc): 3940 ng/mL
Tmax, Mean (SD) ([2]; sc): 1.8 (1.3) hr
observed bioavailability ([2]; sc): 0.7
AUClast ([2]; sc, 20 mg/kg): 19503 ng·h/mL
Cmax ([2]; sc, 20 mg/kg): 3936 ng/mL
mice that had died [3]: one
Cd40 (NM_011611) gene expression, Fold vs P ([4]; vs P (vehicle) group): −2.7 Fold
Fasl (NM_010177) gene expression, Fold vs P ([4]; vs P (vehicle) group): −2.6 Fold
Gadd45a (NM_007836) gene expression, Fold vs P ([4]; vs P (vehicle) group): −10.9 Fold
Nol3 (NM_030152) gene expression, Fold vs P ([4]; vs P (vehicle) group): 3.6 Fold
Pvr (NM_027514) gene expression, Fold vs P ([4]; vs P (vehicle) group): −3.3 Fold
Tnf (NM_013693) gene expression, Fold vs P ([4]; vs P (vehicle) group): −2.4 Fold
Apaf1 (NM_009741) gene expression, Fold vs C ([4]; vs control (C) group): −2.2 Fold
Cd40 (NM_011611) gene expression, Fold vs C ([4]; vs control (C) group): −2.1 Fold
Fasl (NM_010177) gene expression, Fold vs C ([4]; vs control (C) group): −2.1 Fold
Gadd45a (NM_007836) gene expression, Fold vs C ([4]; vs control (C) group): −9.3 Fold
Nol3 (NM_030152) gene expression, Fold vs C ([4]; vs control (C) group): 5.3 Fold
Pvr (NM_027514) gene expression, Fold vs C ([4]; vs control (C) group): −3.9 Fold
Tnfrsf11b (NM_008764) gene expression, Fold vs C ([4]; vs control (C) group): −2.9 Fold
25HC3S Solubility ([5]; 50 mg/mL HPbCD in water): 9.78 mg/mL
Molar of 25HC3S ([5]; 50 mg/mL HPbCD in water): 0.01938 Molar
25HC3S Solubility ([5]; 50 mg/mL SBECD in water): 6.03 mg/mL
Molar of 25HC3S ([5]; 50 mg/mL SBECD in water): 0.01195 Molar
25HC3S Solubility ([5]; 100 mg/mL HPbCD in water): 18.44 mg/mL
Molar of 25HC3S ([5]; 100 mg/mL HPbCD in water): 0.03654 Molar
25HC3S Solubility ([5]; 100 mg/mL SBECD in water): 9.86 mg/mL
Molar of 25HC3S ([5]; 100 mg/mL SBECD in water): 0.01954 Molar
25HC3S Solubility ([5]; 200 mg/mL HPbCD in water): 31.97 mg/mL
Molar of 25HC3S ([5]; 200 mg/mL HPbCD in water): 0.06334 Molar
25HC3S Solubility ([5]; 200 mg/mL SBECD in water): 21.24 mg/mL
Molar of 25HC3S ([5]; 200 mg/mL SBECD in water): 0.04208 Molar
25HC3S Solubility ([5]; 250 mg/mL HPbCD in water): 42.37 mg/mL
Molar of 25HC3S ([5]; 250 mg/mL HPbCD in water): 0.08395 Molar
25HC3S Solubility ([5]; 400 mg/mL HPbCD in water): 66 mg/mL and 65.18 mg/mL
Molar of 25HC3S ([5]; 400 mg/mL HPbCD in water): 0.1291 Molar
25HC3S Solubility ([5]; 400 mg/mL SBECD in water): 44.76 mg/mL
Molar of 25HC3S ([5]; 400 mg/mL SBECD in water): 0.08869 Molar
relative amounts of HPbCD needed to solubilize 25HC3S (ratio) ([5]; mg/mL basis, water): 6 to 1
25HC3S Solubility ([5]; water, 0 mg/mL cyclodextrin): 0.14 mg/mL
Molar of 25HC3S ([5]; water, 0 mg/mL cyclodextrin): 0.00028 Molar
survival to the scheduled necropsy ([6]; Beagle dogs, sc 3, 10, 30 mg/kg/day, 14 days): All animals survived
injection site changes ([6]; dog, in vivo, sc): no injection site changes appeared directly attributable
mean AUClast ([6]; dog, in vivo, sc, 30 mg/kg/day): 19,877 ng*hr/mL
mean C. ([6]; dog, in vivo, sc, 30 mg/kg/day): 7,753 ng/mL
